Common to all, as to assay: NCI-60 cell line screen, 48 h
The subject of assay [1] is A549.
Assay [2] relates to ACHN.
The test system of assay [3] is BT-549.
The subject of assay [4] is HCT-116.
Assay [5] has as its system HL-60.
The test system of assay [6] is NCI-H226.
Assay [7] has as its system NCI-H23.
The subject of assay [8] is NCI-H522.
For assay [9], the system named is NCI/ADR-RES.
Assay [10] deals with OVCAR-8.
The subject of assay [11] is RPMI-8226.
Assay [12] has as its system RXF 393.
The subject of assay [13] is SF-539.
For assay [14], the system named is SK-MEL-28.
Assay [15] deals with SK-OV-3.
Assay [16] deals with SNB-75.
The test system of assay [17] is SR.
Assay [18] concerns TK-10.
Assay [19] relates to U-251.
For assay [20], the system named is UACC-257.

The source of these data is ChEMBL document CHEMBL1201862, “PubChem BioAssay data set” (2004).

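In this assay, cells in 96-well plates receive the compound at five concentrations for 48 hours. Endpoints are linearly interpolated between the surrounding concentrations. The concentration for 50% growth inhibition is given as GI50.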 Activity calls are given as the source filed them. Rule as the data show it: active = GI50 up to about 1.1 µM and inactive = higher. Bounds are passed on as bounds.

As to `Ic1ccc2c(c1)N(c1ccccc1)c1cc([N-]c3ccc4nc5ccc(I)cc5[n+](-c5ccccc5)c4c3)ccc1N2`, the GI50 was > 100 µM (inactive) in assay [1]; > 100 µM (inactive) in assay [2]; > 100 µM (inactive) in [3]; 35 µM (inactive) in assay [4]; 17.9 µM (inactive) in [5]; > 100 µM (inactive) in [6]. Further, the GI50 in assay [7] was 41.3 µM (inactive); in [8] it was 22.8 µM (inactive); in [9], > 100 µM (inactive); in [10] it was > 100 µM (inactive); in [11] it was 32.1 µM (inactive); in assay [12] it was > 100 µM (inactive). For the same molecule, the GI50 in assay [13] is > 100 µM (inactive); in assay [14] it was > 100 µM (inactive); in assay [15], > 100 µM (inactive); in assay [16] it was > 100 µM (inactive); in assay [17], 32.6 µM (inactive); in assay [18] it was > 100 µM (inactive). Moreover, the GI50 in assay [19] was 45.6 µM (inactive); in assay [20] it was 31.3 µM (inactive).

Take `O=C1C(Cl)=C(N2CCN(c3ncccn3)CC2)C(=O)c2c(O)ccc(O)c21`: the GI50 in assay [1] was 7.16 µM (inactive); in assay [2], 2.43 µM (inactive); in assay [3], 2.14 µM (inactive); in [4] it was 1.69 µM (inactive); in assay [5] it was 0.0515 µM (active); in [6], 21.8 µM (inactive). Also, the GI50 is 2.27 µM (inactive) in assay [7]; 2.2 µM (inactive) in [8]; 3.01 µM (inactive) in [9]; 2.18 µM (inactive) in assay [10]; 2.49 µM (inactive) in [11]; 1.78 µM (inactive) in assay [12]. For the same molecule, the GI50 in [13] was 1.97 µM (inactive); in assay [14] it was 2.23 µM (inactive); in assay [15], 24 µM (inactive); in assay [16] it was 9.02 µM (inactive); in [17] it was 0.265 µM (active); in assay [18], 1.89 µM (inactive). Further, the GI50 was 3.63 µM (inactive) in [19] and 1.84 µM (inactive) in assay [20].

On to `N=C(N)NS(=O)(=O)c1ccc(NC(=O)c2ccc3nc4ccccc4c(O)c3c2)cc1`, for which the GI50 in assay [1], in assay [2], in [3], in assay [4], in assay [5] and in [6] was > 100 µM (inactive) each time. For the same molecule, the GI50 in [7], in assay [8], in assay [9], in assay [10], in [11] and in [12] was > 100 µM (inactive) in each case. Moreover, the GI50 in [13], in [14], in assay [15], in assay [16], in assay [17] and in [18] was > 100 µM (inactive) in each case. The GI50 in assay [19] and in assay [20] was > 100 µM (inactive) in each case.

Consider `COc1ccc(C2=Nn3c(nc4sc5c(c4c3=O)CCCC5)SC2)cc1`, for which the GI50 in assay [1], in assay [2], in [3], in assay [4], in assay [5] and in assay [6] was > 100 µM (inactive) each time. Besides, the GI50 in assay [7], in [8], in assay [9], in assay [10], in assay [11] and in [12] was > 100 µM (inactive) in each case. Besides, the GI50 is > 100 µM (inactive) in assay [13]; > 100 µM (inactive) in [14]; > 100 µM (inactive) in [15]; > 10 µM (inactive) in assay [16]; > 100 µM (inactive) in assay [17]; 57.8 µM (inactive) in assay [18]. Further, the GI50 in assay [19] and in [20] was > 100 µM (inactive) throughout.

As for `O=c1ccc2[n+]([O-])c3ccc(O)cc3oc-2c1` [RESAZURIN], the GI50 in [1] is 4.31 µM (inactive); in assay [2], 5.65 µM (inactive); in assay [3], 10.7 µM (inactive); in assay [4], 16.7 µM (inactive); in assay [5], 23.1 µM (inactive); in assay [6], 21.1 µM (inactive). Further, the GI50 in assay [7] is 2.56 µM (inactive); in assay [8], 12.1 µM (inactive); in assay [9], 13.4 µM (inactive); in assay [10], 15 µM (inactive); in assay [11] it was 6.01 µM (inactive); in [12], 37 µM (inactive). Moreover, the GI50 was 15.9 µM (inactive) in [13]; 10.2 µM (inactive) in [14]; 66.5 µM (inactive) in assay [15]; 3.45 µM (inactive) in assay [16]; 15.3 µM (inactive) in assay [17]; 36 µM (inactive) in [18]. The GI50 in assay [19] is 9.68 µM (inactive); in assay [20], 11.2 µM (inactive).
